In patent publication US20240336562A1, “COMPOUND SERVING AS NLRP3 INHIBITOR” (Hangzhou Innogate Pharma Co., Ltd., priority 2021, published 2024):

Assays:
[1] = target: NLRP3 (Homo sapiens (Human), UniProt Q96P20); test: Inhibitory activity of NLRP3: IL1β induction in THP1 cells (PMA, LPS, nigericin) and IL1β ELISA detection; assay type: cell-based; conditions: THP-1, 300 nM compound, LPS 500 ng/mL + nigericin 10 μg/mL
Experimental: Study of the Compound's Inhibitory Activity of NLRP3 Step 1: IL1 β Induction 60 μL/well polylysine was added to 96-well cell culture plate and incubated at 37° C. for 30 min. Discard the solution in the plate and wash the cell culture plate twice with PBS. THP1 (50000 cells/well/95 μL) was planted in cell culture plates, 5 μL of PMA was added to each well (the final concentration was 50 ng/mL), and cultured overnight in a thermostat incubator at 37° C. The supernatant was gently sucked out, the cell culture plate was washed with PBS twice, and 80 μL cell culture medium without FBS, followed by 5 μL/well LPS (final concentration 500 ng/mL) was added to each well. The plate was cultured in a thermostat incubator at 37° C. for 3 hours. […] Then 10 μL/well nigericin (final concentration 10 μg/mL) was added to the cell plate and cultured in a thermostat incubator at 37° C. for 0.5 hours. The cell supernatant was collected into a new cell plate and frozen at -80° C. for future use. Step 2: IL1 β detection IL1β antibody was diluted 60 times with coating buffer, and 100 μL of diluted antibody was added to each well of ELISA plate, and incubated at 4° C. overnight. Discard the liquid in the ELISA plate and wash it 4 times with eluent. Add 300 μL/well reagent diluent and incubate the ELISA plate at room temperature for 1.5 hours. Wash the plate with eluent for four times. […] Wash the plate with eluent for four times. Each well was added with 100 μL detection antibody and incubated at 37° C. for 2 h. Wash the plate with eluent for four times. Add 100 μL of HRP labeled secondary antibody to each well. Incubate at 37° C. for 1 hour. Wash the plate with eluent for four times. Add 100 μL of A+B substrate per well. Incubate at 37° C. for 30 minutes. Add 100 μL STOP solution per well. Gently shake the plate for a few seconds. Read the absorption value at 450 nm on the EnVision multifunction reader and calculate the Inhibitory rate according to the following formula: Inhibition %=([…]). […] The log value of concentration was taken as the X-axis and the percentage inhibitory rate as the Y-axis. […]

[2] = Pharmacokinetic study in rats after intragastrical administration; assay type: in vivo; conditions: rat, male SD rats, oral 3 mg/kg, plasma
Experimental: Pharmacokinetic Study in Rats
Instruments: XEVO TQ-S LC/MS instrument produced by Waters. All measurement data is collected and processed by Masslynx V4.1 software, and the data is calculated and processed by Microsoft Excel. Using WinNonLin 8.0 software, the statistical moment method was used to calculate the pharmacokinetic parameters. Mainly include kinetic parameters Tmax, T1/2, Cmax, AUClast etc. Column: ACQUITY UPLC BEH C18 (2.1 mm×50 mm, 1.7 μm); column temperature 40° C.; mobile phase A is water (0.1% formic acid), mobile phase B is acetonitrile, flow rate is 0.350 ml/min, gradient elution is adopted, the elution gradient is 0.50 min: 10% B; 1.50 min: 90% B; 2.50 min: 90% B; 2.51 min: 10% B; 3.50 min: stop. Injection volume: 1 μL.
Animals: 3 male SD rats with a weight range of 200-220 g. After purchase, they will be kept in the laboratory of the Experimental Animal Center for 2 days and then used. They will be fasted for 12 hours predose and 4 hours after dosing. Drinking water is free during the test. After the rats were gavage, blood samples were taken according to the established time point.
Solvent: 0.4% ethanol+0.4% Tween80+99.2% (0.5% methylcellulose M450). Preparation of the solution for intragastrical administration: accurately weigh the compound, add it to the solvent, and use ultrasound at room temperature for 5 minutes to completely dissolve the drug, and prepare a 0.3 mg/mL medicinal solution.
Pharmaceutical samples: Generally, multiple samples with similar structures (with a molecular weight difference of more than 2 units) are taken, accurately weighed, and administered together (cassette PK). In this way, multiple compounds can be screened at the same time and their oral absorption rates can be compared. A single administration was also used to study the pharmacokinetics of the drug sample in rats.
After intragastrical administration, blood was taken from the orbit at 0.25, 0.5, 1, 2, 4, 8, 10 and 24 hours. Then take 50 μL of the plasma sample, add 200 μL of acetonitrile (including internal standard control verapamil 2 ng/mL), vortex for 3 min and centrifuge at 20000 ref, 4° C. for 10 min. The supernatant plasma was used for LC-MS/MS analysis.
Accurately weigh the compounds to prepare different concentrations, perform quantitative analysis on mass spectrometry to establish a standard curve, and then test the concentration of the above-mentioned compound in the plasma to obtain the compound concentration at different time points. All measurement data are collected and processed by relevant software, and the statistical moment method is used to calculate the pharmacokinetic parameters (mainly including kinetic parameters Tmax, T1/2, Cmax, AUClast etc).

NLRP3, sequence (Q96P20 whole entry): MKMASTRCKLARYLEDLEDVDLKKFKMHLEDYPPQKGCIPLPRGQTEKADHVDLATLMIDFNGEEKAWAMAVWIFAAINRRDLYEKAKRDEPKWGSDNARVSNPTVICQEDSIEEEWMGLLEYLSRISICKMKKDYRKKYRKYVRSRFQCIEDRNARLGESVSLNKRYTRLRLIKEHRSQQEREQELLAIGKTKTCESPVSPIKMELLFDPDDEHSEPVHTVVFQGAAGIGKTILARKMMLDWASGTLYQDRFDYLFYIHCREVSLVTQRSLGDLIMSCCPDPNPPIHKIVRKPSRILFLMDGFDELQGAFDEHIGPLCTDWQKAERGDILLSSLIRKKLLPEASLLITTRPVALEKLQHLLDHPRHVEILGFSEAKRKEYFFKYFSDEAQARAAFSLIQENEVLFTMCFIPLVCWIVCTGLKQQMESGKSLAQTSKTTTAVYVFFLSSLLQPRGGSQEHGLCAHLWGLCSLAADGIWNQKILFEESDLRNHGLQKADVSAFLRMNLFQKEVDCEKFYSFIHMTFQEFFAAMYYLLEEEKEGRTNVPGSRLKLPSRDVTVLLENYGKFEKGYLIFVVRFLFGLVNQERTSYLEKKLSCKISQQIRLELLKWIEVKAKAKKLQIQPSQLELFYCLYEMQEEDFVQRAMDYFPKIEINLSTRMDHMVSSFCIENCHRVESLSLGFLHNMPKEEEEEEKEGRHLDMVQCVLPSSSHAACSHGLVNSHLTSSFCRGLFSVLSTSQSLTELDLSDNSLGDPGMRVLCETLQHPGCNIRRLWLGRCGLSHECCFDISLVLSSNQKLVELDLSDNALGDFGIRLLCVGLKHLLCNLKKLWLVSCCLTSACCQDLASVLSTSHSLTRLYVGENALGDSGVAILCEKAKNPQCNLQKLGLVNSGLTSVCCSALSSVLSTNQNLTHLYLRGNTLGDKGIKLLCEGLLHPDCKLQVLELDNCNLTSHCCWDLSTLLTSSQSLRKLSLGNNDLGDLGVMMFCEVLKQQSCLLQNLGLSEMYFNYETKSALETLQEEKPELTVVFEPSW

| Structure (SMILES) | inhibition at 0.3 µM [1] [%] | Cmax [2] [ng/mL] | Tmax [2] [h] | half-life [2] [h] | AUC(0-t) ([2]; read-out: AUC(0-24)) [ng·h/mL] |
| --- | --- | --- | --- | --- | --- |
| Cc1cc2c(c(NC(=O)NS(C)(=O)=O)c1-c1ccnc(OCC3=CCN(C)CC3)c1)CCC2 [Compound 1] | > 50 |  |  |  |  |
| Cc1cc2c(c(NC(=O)NS(=O)(=O)C3CC3)c1-c1ccnc(OCC3=CCCN(C)C3)c1)CCC2 [Compound 6] | > 50 |  |  |  |  |
| Cc1cc2c(c(NC(=O)NS(=O)(=O)N(C)C)c1-c1ccnc(OCC3=CCCN(C)C3)c1)CCC2 [Compound 7] | > 50 |  |  |  |  |
| COc1cc(-c2c(C)cc3c(c2NC(=O)NS(=O)(=O)c2ccn(C4CC(=C(F)F)C4)n2)CCC3)ccn1 (stereo not shown) [Compound 22] |  | 1530 | 1 | 5.6 | 6710 |
